Earlier results in patent publication US20100221327A1, “Nanoparticulate azelnidipine formulations” (Elan Pharma International Limited, priority 2005, published 2010).
“Also recorded” adds a separate entry of the source.

CC1=C(C(=O)OC(C)C)C(c2cccc([N+](=O)[O-])c2)C(C(=O)OC2CN(C(c3ccccc3)c3ccccc3)C2)=C(N)N1 (racemic) [Azelnidipine, (±)-3-(1-Diphenylmethylazetidin-3-yl)-5-isopropyl 2-amino-1,4-dihydro-6-methyl-4-(3-nitrophenyl)-3,5-pyridinedicarboxylate]
Solubility in water: only slightly soluble; also recorded: practically insoluble
